Laboratory results taken from US11845782B2, “Relaxin fusion polypeptides and uses thereof” (MedImmune Limited, priority 2017, dated 2023).
Where a chain is given by its changes, count along the chain named.

B1: Fc-YTE-hRLX2-15-15AA: As Fc_hRLX2_15-15AA with YTE mutations in Fc; SEQ ID NO. 22 (protein)
chain: DKTHTCPPCPAPELLGGPSVFLFPPKPKDTLYITREPEVTCVVVDVSHEDPEVKFNWYVDGVEVHNAKTKPREEQYNSTYRVVSVLTVLHQDWLNGKEYKCKVSNKALPAPIEKTISKAKGQPREPQVYTLPPSRDELTKNQVSLTCLVKGFYPSDIAVEWESNGQPENNYKTTPPVLDSDGSFFLYSKLTVDKSRWQQGNVFSCSVMHEALHNHYTQKSLSLSPGKGGGGSGGGGSGGGGSQLYSALANKCCHVGCTKRSLARFCGGGGSGGGGSGGGGSSWMEEVIKLCGRELVRAQIAICGMSTWS
modifications: fusion protein
B2: Fc-YTE-FQQ_hRLX2_15-15A: As Fc_hRLX2_15-15AA with YTE and FQQ mutations in Fc; SEQ ID NO. 26 (protein)
chain: B1 chain with L14F, L15Q, K102Q
modifications: fusion protein
B3: Fc-YTE-TM_hRLX2_15-15A: As Fc_hRLX2_15-15AA with YTE and TM mutations in Fc; SEQ ID NO. 24 (protein)
chain: B1 chain with L14F, L15E, P111S
modifications: fusion protein

Tests used:
[1] = test system: isoproterenol-induced cardiac hypertrophy; assay: Isoproterenol-induced cardiac hypertrophy and fibrosis in mice (Example 8); assay type: in vivo, C57BL/6J male mice; details: given concomitantly with isoproterenol 15 mg/kg/day, 2 weeks
Description: A total of 6 study groups with n=8 mice (C57BL/6J male mice) per group were performed. The groups were: vehicle, Fc_hRLX2_15-15AA, isoproterenol, isoproterenol+enalapril, isoproterenol+recombinant human relaxin 2, and isoproterenol+Fc_hRLX2_15-15AA. Drugs and vehicle were delivered by Alzet minipumps (model 1002; rate: 0.25 μl/hr (±0.05), 6 μl one day @37° C.) or subcutaneous injection for Fc_hRLX2_15-15AA.
Isoproterenol was made as follows: A 500 mM solution (123.9 mg/ml) freshly in 0.0002% Na-Asc saline, […] filtered). The final [Iso] concentration in minipump: 15 mg/kg/day=15 mg/247.72/6 μl/1000 g=10.1 mM per gram of body weight (BVV). Vehicle was 0.0002% Na-ascorbate, Sigma catalog #A7631.
Enalapril was made as follows: Enalapril is used as maleate salt, MW of 492.52, Sigma catalog #E6888. A 200 mM stock solution (98.5 mg/ml) freshly in methanol, […] filtered. The final concentration in minipump: 2.5 mg/kg/day=2.5 mg/492.52/6 μl/1000 g=0.846 mM per gram of body weight (BVV), i.e., one minipump for 30 gram of mouse will need 19.0 μl of 200 mM Ena (150 μl×0.846/200 mM×30 g BW).
Isoproterenol+Enalapril: Isoproterenol and enalapril made as described above were included in the pump.
At the end of the study, body weight, heart weight, lung weight, and tibia length were measured. Additionally, histology and collagen assays were performed using the heart samples.
Fibrosis was measured based on the detection of hydroxyproline (Total collagen assay, QuickZyme Biosciences). Histology (H & E and Masson Trichrome) was also carried out on formalin treated heart tissue following 2 weeks of treatments.

[2] = test system: VEGF expression in THP-1 cells; assay: VEGF mRNA induction in THP-1 cells, quantitative real-time PCR (Example 4); assay type: cell-based, human; details: 0.01, 0.06, and 10 ng/ml; 2.5 h
Description: The ability of the Relaxin 2 fusion polypeptides to induce the expression of VEGF, a known downstream target of Relaxin 2 (Xiao et al., 2013), was assayed. The expression of VEGF RNA in THP-1 cells (Catalogue number TIB-202, ATCC) was analyzed by quantitative real-time PCR. A total of […] was seeded in a 24-well flat bottom plate (Catalogue number 353226, Corning) in 400 μl test media (RPMI-1640 without phenol red, 0.5% FBS, 1% Pen/Strep and 0.05 mM of 2-mercaptoethanol). After 24 h incubation at 37° C., 5% CO2, human relaxin-2 (Catalogue number 3956-RN, R&D Systems) or Fc-hRelaxin-2 fusion polypeptides, were added to the cells in the plate for 2.5 h at 37° C. RNA isolation and purification from THP-1 cells was performed using Qiagen's QiaShredder (Catalogue number 79656, Qiagen) and RNA Plus Mini Kit (Catalogue number 74134, Qiagen), following the manufacturer's protocol. The mRNA concentrations were measured by NanoDrop (Thermofisher) and samples were normalized to the same starting concentration (range between RT-PCR set up; 50-20 ng/μl). […] The relative fold change in VEGF mRNA level was calculated by the comparative Ct method using GAPDH expression for normalization. Results were calculated as fold changes over no treatment control. […] Data was analyzed by paired two tailed t-test utilizing Prism GraphPad, V6.

[3] = intravenous administration, cited from earlier work
[4] = Mouse PK profile, FcRn transgenic mouse, Fc capture and Relaxin detection ELISA (Example 6); assay type: in vivo; details: IV or SC, 6 mg/kg

Row | Molecule | isoproterenol-induced increase in cardiac hypertrophy (HW/TL) [1] | isoproterenol-induced increase in fibrosis (collagen content) [1] | half-life offered by the YTE mutations [4] | other results
1 | CCOC(=O)[C@H](CCc1ccccc1)N[C@@H](C)C(=O)N1CCC[C@H]1C(=O)O [enalapril] | significantly attenuated | significantly attenuated |  | 
2 | rhRLX2: Recombinant human Relaxin-2, R&D Systems (catalogue 6586-RN-025; 3956-RN in VEGF assay), positive control; mature A/B chain array (chain 1 QLYSALANKCCHVGCTKRSLARFC; chain 2 DSWMEEVIKLCGRELVRAQIAICGMSTWS) | significantly attenuated | significantly attenuated |  | VEGF transcripts in THP-1 cells vs no treatment control [2]: significantly increased
3 | serelaxin |  |  |  | proportion of patients with significant blood pressure drop (>40 mm Hg) [3]: approximately one third; markers of cardiac, renal and hepatic damage and congestion ([3]; patients): improved
4 | B1 |  |  | extended half-life | 
5 | B2 |  |  | extended half-life | 
6 | B3 |  |  | extended half-life | 
